Results as given in ChEMBL document CHEMBL4229547, “Design, synthesis and biological mechanisms research on 1,2,3-triazole derivatives of Jiyuan Oridonin A” (Bioorg Med Chem, 2018).
pIC50: −log10 of the molar value. Active and inactive are the calls of the source. No cut-off for these calls is given here.

Tests used:
[1] = test system: MGC-803; assay: Cell cycle arrest in human MGC803 cells assessed as accumulation at G0/G1 phase at 1.5 ug/ml after 48 hrs by propidium iodide staining-based flow cytometric method (reference value: 52.5 +/- 3.71%); format: functional
[2] = test system: MGC-803; assay: Induction of apoptosis in human MGC803 cells assessed as viable cells at 1.5 ug/ml by annexin V-FITC/propidium iodide staining-based flow cytometric method (reference value: 97.6%); format: functional; conditions: read-out: Activity
[3] = test system: MGC-803; assay: Cell cycle arrest in human MGC803 cells assessed as accumulation at G0/G1 phase at 3 ug/ml after 48 hrs by propidium iodide staining-based flow cytometric method (reference value: 52.5 +/- 3.71%); format: functional
[4] = test system: MGC-803; assay: Cell cycle arrest in human MGC803 cells assessed as accumulation at G2/M phase at 1.5 ug/ml after 48 hrs by propidium iodide staining-based flow cytometric method (reference value: 17.2 +/- 1.35%); format: functional
[5] = test system: MGC-803; assay: Antiproliferative activity against human MGC803 cells at 8 to 16 ug/ml after 48 hrs in presence of N-acetyl cysteine by MTT assay; format: functional, cell-based
[6] = test system: MGC-803; assay: Cell cycle arrest in human MGC803 cells assessed as accumulation at G2/M phase after 48 hrs by propidium iodide staining-based flow cytometric method; format: functional
[7] = test system: MGC-803; assay: Cell cycle arrest in human MGC803 cells assessed as accumulation at G2/M phase at 3 ug/ml after 48 hrs by propidium iodide staining-based flow cytometric method (reference value: 17.2 +/- 1.35%); format: functional
[8] = test system: SMMC-7721; assay: Antiproliferative activity against human SMMC7721 cells after 48 hrs by MTT assay; format: functional, cell-based; conditions: SMMC-7721, 48 h
[9] = test system: MGC-803; assay: Antiproliferative activity against human MGC803 cells after 48 hrs by MTT assay; format: functional, cell-based; conditions: MGC-803, 48 h
[10] = test system: MGC-803; assay: Induction of apoptosis in human MGC803 cells assessed as upregulation of p21 levels at 1.5 to 6 ug/ml after 48 hrs by Western blot method; format: functional, cell-based
[11] = test system: GES1; assay: Antiproliferative activity against human GES-1 cells after 48 hrs by MTT assay; format: cell-based; conditions: GES1, 48 h
[12] = test system: MGC-803; assay: Induction of apoptosis in human MGC803 cells assessed as late apoptotic cells at 3 ug/ml by annexin V-FITC/propidium iodide staining-based flow cytometric method (reference value: 0.1%); format: functional
[13] = test system: HGC-27; assay: Antiproliferative activity against human HGC27 cells after 48 hrs by MTT assay; format: functional, cell-based; conditions: HGC-27, 48 h
[14] = test system: MGC-803; assay: Cell cycle arrest in human MGC803 cells assessed as accumulation at S phase at 3 ug/ml after 48 hrs in presence of N-acetyl cysteine by propidium iodide staining-based flow cytometric method (reference value: 32.5 +/- 2.25%); format: functional
[15] = test system: MGC-803; assay: Induction of reactive oxygen species formation in human MGC803 cells at 3 ug/ml after 3 hrs by DCFH-DA staining-based flow cytometry (reference value: 7.1%); format: functional
[16] = test system: MGC-803; assay: Induction of apoptosis in human MGC803 cells assessed as increase in cell debris after 24 hrs by inverted microscopic method; format: functional, cell-based
[17] = test system: MGC-803; assay: Induction of apoptosis in human MGC803 cells assessed as early apoptotic cells at 3 ug/ml in presence of N-acetyl cysteine by annexin V-FITC/propidium iodide staining-based flow cytometric method (reference value: 1.3%); format: functional
[18] = test system: MGC-803; assay: Induction of apoptosis in human MGC803 cells assessed as downregulation of survivin levels at 1.5 to 6 ug/ml after 48 hrs by Western blot method; format: functional, cell-based
[19] = test system: EC9706; assay: Antiproliferative activity against human EC9706 cells after 48 hrs by MTT assay; format: functional, cell-based; conditions: EC9706, 48 h
[20] = test system: MGC-803; assay: Disruption of mitochondrial membrane potential in human MGC803 cells at 1.5 to 3 ug/ml after 24 hrs in presence of N-acetyl cysteine by JC1 staining-based fluorescence microscopic method; format: functional, cell-based
[21] = test system: MGC-803; assay: Induction of apoptosis in human MGC803 cells assessed as upregulation of cytochrome c levels in cytoplasm at 1.5 to 6 ug/ml after 48 hrs by Western blot method; format: functional, cell-based
[22] = test system: MGC-803; assay: Induction of apoptosis in human MGC803 cells assessed as early apoptotic cells at 1.5 ug/ml in presence of N-acetyl cysteine by annexin V-FITC/propidium iodide staining-based flow cytometric method (reference value: 1.3%); format: functional
[23] = test system: MGC-803; assay: Induction of apoptosis in human MGC803 cells assessed as increase in apoptotic bodies formation at 1.5 to 6 ug/ml after 24 hrs by Hoechst 33258 staining-based fluorescence microscopic method; format: functional, cell-based
[24] = test system: MGC-803; assay: Cell cycle arrest in human MGC803 cells assessed as accumulation at G0/G1 phase at 3 ug/ml after 48 hrs in presence of N-acetyl cysteine by propidium iodide staining-based flow cytometric method (reference value: 52.5 +/- 3.71%); format: functional
[25] = test system: PC-3; assay: Antiproliferative activity against human PC3 cells after 48 hrs by MTT assay; format: functional, cell-based; conditions: PC-3, 48 h
[26] = test system: MGC-803; assay: Induction of apoptosis in human MGC803 cells assessed as upregulation of p53 levels at 1.5 to 6 ug/ml after 48 hrs by Western blot method; format: functional, cell-based
[27] = test system: MGC-803; assay: Cell cycle arrest in human MGC803 cells assessed as accumulation at S phase at 1.5 ug/ml after 48 hrs by propidium iodide staining-based flow cytometric method (reference value: 32.5 +/- 2.25%); format: functional
[28] = test system: MGC-803; assay: Induction of apoptosis in human MGC803 cells assessed as early apoptotic cells at 3 ug/ml by annexin V-FITC/propidium iodide staining-based flow cytometric method (reference value: 1.3%); format: functional
[29] = test system: MCF7; assay: Antiproliferative activity against human MCF7 cells after 48 hrs by MTT assay; format: functional, cell-based; conditions: MCF7, 48 h
[30] = test system: MGC-803; assay: Induction of apoptosis in human MGC803 cells assessed as upregulation of cleaved caspase-9 levels after 48 hrs by Western blot method; format: functional, cell-based
[31] = test system: MGC-803; assay: Cell cycle arrest in human MGC803 cells assessed as accumulation at S phase at 1.5 ug/ml after 48 hrs in presence of N-acetyl cysteine by propidium iodide staining-based flow cytometric method (reference value: 32.5 +/- 2.25%); format: functional
[32] = test system: MGC-803; assay: Induction of apoptosis in human MGC803 cells assessed as decrease in cell number after 24 hrs by inverted microscopic method; format: functional, cell-based
[33] = test system: MGC-803; assay: Induction of apoptosis in human MGC803 cells assessed as necrotic cells at 1.5 ug/ml in presence of N-acetyl cysteine by annexin V-FITC/propidium iodide staining-based flow cytometric method (reference value: 1%); format: functional
[34] = test system: ECa-109 cell line; assay: Antiproliferative activity against human ECA109 cells after 48 hrs by MTT assay; format: functional, cell-based; conditions: ECa-109, 48 h
[35] = test system: MGC-803; assay: Induction of reactive oxygen species formation in human MGC803 cells at 3 ug/ml after 5 hrs by DCFH-DA staining-based flow cytometry (reference value: 7.1%); format: functional
[36] = test system: MGC-803; assay: Induction of apoptosis in human MGC803 cells assessed as necrotic cells at 3 ug/ml by annexin V-FITC/propidium iodide staining-based flow cytometric method (reference value: 1%); format: functional

Compound `C=C1C(=O)[C@]23[C@H](O)[C@H]1C[C@H](O)[C@H]2[C@]12CCCC(C)(C)[C@H]1C[C@H]3O[C@@H]2OCCc1cn(Cc2ccc(Cl)cc2)nn1` has an Activity [1] of 46.3%, a viability at 1.5 µg/mL [2] of 91% and an Activity [3] of 30.5%. For the same compound, the Activity [4] was 26.7%, the Activity [5] was “inactive” and the Activity [6] was “Dose-dependent effect”. For the same compound, the Activity [7] was 40.3%, the pIC50 [8] was 5.35 and the pIC50 [9] was 5.60. The Activity [10] was “Active”, the pIC50 [11] was 4.54 and the Activity [12] was 1.1%. For the same compound, the pIC50 [13] was 5.53, the Activity [14] was 33.2% and the Activity [15] was 13.6%. The Activity [16] was “Dose-dependent effect”, the Activity [17] was 4.6% and the Activity [18] was “Active”. For the same compound, the pIC50 [19] was 5.30, the Activity [20] was “inactive” and the Activity [21] was “Active”. For the same compound, the Activity [22] was 4.2%, the Activity [23] was “Active” and the Activity [24] was 50.4%. For the same compound, the pIC50 [25] was 5.40, the Activity [26] was “Active” and the Activity [27] was 29.2%. The Activity [28] was 60.3%, the pIC50 [29] was 5.32 and the Activity [30] was “Dose-dependent effect”. The Activity [31] was 29.1%, the Activity [32] was “Dose-dependent effect” and the Activity [33] was 0.6%. It also gave a pIC50 [34] of 5.57, an Activity [35] of 24.8% and an Activity [36] of 1.3%.
